# In US8277860B2, “Method of stabilizing 1,4-dihydroxy-2-naphthoic acid” (Meiji Co., Ltd., priority 2003, dated 2012):
# Columns and labels:
# [1] = Nitrogen gas substitution test: DHNA content during preparation and preservation of DHNA-containing plain yogurt; type: physicochemical
# Method: (§1) A 5 ml portion of each sample was passed through a solid phase extraction column (Oasis HLB, manufactured by Waters Corporation) conditioned with 5 ml of methanol and 4 ml of 1% (w/v) sodium ascorbate aqueous solution. After washing with 5 ml of an aqueous solution of 1% (w/v) sodium ascorbate and elution with 4 ml of an aqueous solution of 10% (w/v) sodium ascorbate/methanol (1:9), the thus obtained eluate was concentrated under reduced pressure. A 1 ml portion thereof was sampled and filled up with the aforementioned sodium ascorbate-containing methanol. The mixture was filtered through a 0.5 μm filter and subjected to HPLC (column: Cadenza CD-C18 (4.6×150 mm, manufactured by Imtact Corporation), mobile phase: acetonitrile, methanol, water and acetic acid (10:20:200:0.1, vol/vol/vol/vol, adjusted to pH 7 with aqueous ammonia), detector: UV detector, detection wavelength: 254 nm, flow rate: 1.5 ml/min, column temperature: 45° C., sample injection: 20 μl). […]
# The DHNA content contained in the plain yogurt was measured in accordance with the aforementioned test example, at respective steps of before pasteurization of the mix, after pasteurization of the same, just after inoculation of the bulk starter and completion of the fermentation, and after the lapse of the preservation for 1 week and 2 weeks, according to the production of plain yogurt of this Example.
# [2] = Nitrogen gas substitution test: DHNA content during preservation of DHNA-containing vegetable drink; type: physicochemical; settings: vegetable drink with ascorbic acid; nitrogen bubbled until dissolved oxygen 5 ppm; pasteurized 140° C. 3 seconds; ordinary temperature (25° C.) preservation, 2 months
# Method: as §1, with “μl). A calibration curve was prepared by preparing a 1 mg/ml (methanol solution) standard stock solution of a DHNA preparation (046-22422, manufactured by Wako Pure Chemical Industries, Ltd.) and using the solution after optionally diluting with methanol.” for “μl).”
smiles,measurement,setting,value
"O=C(O)c1cc(O)c2ccccc2c1O [DHNA, 1,4-dihydroxy-2-naphthoic acid]",DHNA content after heat pasteurization in comparison with the content before heat pasteurization,"[1]; control plain yogurt mix without nitrogen gas bubbling (dissolved oxygen about 10 ppm), heating at 95° C. for 5 minutes",about 30%
same,loss of DHNA during the preparation and preservation,"[1]; plain yogurt mix bubbled with nitrogen gas (dissolved oxygen less than 1 ppm), pasteurized 95° C. 5 minutes, fermented 43° C. 4 hours, preserved in the dark at 10° C. for 2 weeks",almost completely inhibited
same,reduction of the DHNA content during preservation,[2],can be inhibited for a prolonged period of time
